Series [1] has as its system Venturia inaequalis. Nature of the series: Venturia test (apple) / protective. Type of series: in vivo. The note with it: 240 h, active compound concentration 100 ppm, evaluation 10 days after inoculation, read-out: efficacy. As for the experimental part:
After the spray coating has dried on, the plants are inoculated with an aqueous conidia suspension of the apple scab pathogen Venturia inaequalis and then remain for 1 day in an incubation cabinet at about 20° C. and 100% relative atmospheric humidity.

In series [2] the test system is Sphaerotheca fuliginea. Nature of the series: Sphaerotheca test (cucumber) / protective. Type of series: in vivo. Conditions: Podosphaera fuliginea, 168 h, active compound concentration 500 ppm, evaluation 7 days after inoculation, read-out: efficacy. How it is done:
The plants are subsequently placed in a greenhouse at 70% relative atmospheric humidity and a temperature of 23° C.

The test system of series [3] is Fusarium proliferatum. Briefly: Production of fumonisin FB1 by Fusarium proliferatum (microtitre plates; FB1 by HPLC-MS/MS, growth by OD620). In kind it is cell-based. The note with it: Fusarium proliferatum, 144 h.
Series [4] concerns Leptosphaeria nodorum. Nature of the series: Leptosphaeria nodorum test (wheat) / protective. In kind it is in vivo. The note with it: Parastagonospora nodorum, active compound concentration 500 ppm, evaluation 7-9 days after inoculation, read-out: efficacy. As for the experimental part:
Thereafter, the plants are placed in a greenhouse at 90% relative atmospheric humidity and a temperature of 22° C.

Series [5] can be described thus: logP by HPLC on reversed-phase columns (C 18), method [a], acidic range pH 2.3. Type of series: physicochemical. Conditions: pH 2.3, logP (pH2.3). As for the experimental part: (§1) The logP values were determined in accordance with EEC Directive 79/831 Annex V.A8 by HPLC (High Performance Liquid Chromatography) on reversed-phase columns (C 18), using the methods below:
[a] The determination is carried out in the acidic range at pH 2.3 using the mobile phases 0.1% aqueous phosphoric acid and acetonitrile, linear gradient from 10% acetonitrile to 95% acetonitrile.

Series [6] relates to Alternaria solani. Nature of the series: Alternaria test (tomato) / protective. Type of series: in vivo. The note with it: 72 h, active compound concentration 100 ppm, evaluation 3 days after inoculation, read-out: efficacy. How it is done: The plants are then placed in an incubation cabinet at about 20° C. and 100% relative atmospheric humidity.
The subject of series [7] is Pyrenophora teres. Nature of the series: Pyrenophora teres test (barley) / protective. In kind it is in vivo. Conditions: 192 h, active compound concentration 500 ppm, evaluation 8 days after inoculation, read-out: efficacy. How it is done:
After the spray coating has dried on, the plants are sprayed with a spore suspension of Pyrenophora teres. The plants remain in an incubation cabinet for 48 hours at 20° C. and 100% relative atmospheric humidity.

Series [8] relates to Cochliobolus miyabeanus. Nature of the series: Cochliobolus test (rice) / protective. The note with it: Bipolaris oryzae, in Oryza sativa, 96 h, read-out: efficacy.
Experimental: Cochliobolus Test (Rice)/Protective • Solvent: 28.5 parts by weight of acetone • Emulsifier: 1.5 parts by weight of alkylaryl polyglycol ether
1 day after the treatment, the plants are inoculated with an aqueous spore suspension of Cochliobolus miyabeanus. The plants are then placed in a greenhouse at 100% relative atmospheric humidity and 25° C.
Evaluation is carried out 4 days after the inoculation.
The subject of series [9] is Pyricularia oryzae. Nature of the series: whole plant or invertebrate. Type of series: in vivo. The note with it: 120 h, read-out: efficacy.
Series [10] is described as follows: logP by LC-MS on reversed-phase columns (C 18), method [b], acidic range pH 2.7. Type of series: physicochemical. The note with it: pH 2.7, log p. As for the experimental part:
as §1
[b] The LC-MS determination in the acidic range is carried out at pH 2.7 using the mobile phases 0.1% aqueous formic acid and acetonitrile (contains 0.1% formic acid), linear gradient from 10% acetonitrile to 95% acetonitrile.

For series [11], the system named is Rhizoctonia solani. Nature of the series: Rhizoctonia test (rice) / protective. In kind it is in vivo. Conditions: 96 h, active compound concentration 250 ppm, evaluation 4 days after inoculation, read-out: efficacy.
Series [12] relates to Fusarium graminearum. Nature of the series: microbe, parasite or virus in culture. Type of series: cell-based. The note with it: 168 h, read-out: DON/AcDON-inhibitory activity.
Series [13] is described as follows: logP by LC-MS on reversed-phase columns (C 18), method [c], neutral range pH 7.8. The note with it: pH 7.8. In kind it is physicochemical. As for the experimental part: as §1
[c] The LC-MS determination in the neutral range is carried out at pH 7.8 using the mobile phases 0.001 molar aqueous ammonium bicarbonate solution and acetonitrile, linear gradient from 10% acetonitrile to 95% acetonitrile.

The nature of series [14]: logP by HPLC on reversed-phase columns (C 18), method [a], acidic range pH 2.3. Conditions: pH 2.94, logP (pH2.94). Type of series: physicochemical.

Where two headings read alike, the source gives them in different places.

By chromatographic logP is commonly meant a lipophilicity value derived from retention on a column. Low readings indicate lower lipophilicity, high ones higher lipophilicity.

As for `CC[S+]([O-])c1cccc(Nc2ncc(Cl)c(NC3CCC3)n2)c1` (centres unmarked) [Example 28, 5-Chloro-N^4-cyclobutyl-N^2-[3-(ethylsulphinyl)phenyl]pyrimidine-2,4-diamine], the pest or weed control at 100 ppm in series [1] and in [6] was ≥ 70% each time. Also, the pest or weed control at 500 ppm in series [2], in [4] and in [7] was ≥ 70% throughout. The IC50 is 3.98 µM in series [3] (read-out: pI50 Fum); 20 µM in [3] (growth, OD620 at the beginning and after 6 days, read-out: pI50 growth (converted)). Also, the chromatographic logP in series [5] and in series [10] was 1.76 in each case. Besides, the pest or weed control at 250 ppm in series [8], in series [9] and in [11] was ≥ 80% each time.
Turning to `COCc1cccc(Nc2ncc(Cl)c(N(C)C3CC3)n2)c1` [Example 58], in series [1], the pest or weed control at 100 ppm was ≥ 70%. Further, the pest or weed control at 500 ppm in [2], in [4] and in series [7] was ≥ 70% in each case. The inhibition at 50 µM in series [12] is > 80%. Also, the chromatographic logP in series [13] is 3.76; in series [10] it was 2.7.
Take `CCC(SC)c1cccc(Nc2ncc(Cl)c(NC3CC3)n2)c1` (centres unmarked) [Example 61, 5-Chloro-N^4-cyclopropyl-N^2-{3-[1-(methylsulphanyl)propyl]phenyl}pyrimidine-2,4-diamine]: the pest or weed control at 100 ppm in series [1] and in series [6] was ≥ 70% throughout. Besides, the pest or weed control at 500 ppm in [2] and in series [4] was ≥ 70% each time. Moreover, the inhibition at 50 µM in series [12] was > 80%. Also, the chromatographic logP in series [5] came out at 2.59; in series [10], 2.94. The pest or weed control at 250 ppm in series [9] and in series [11] was ≥ 80% throughout.
As for `COCc1cccc(Nc2ncc(Cl)c(NCCF)n2)c1` [Example 138], the pest or weed control at 100 ppm in [1] and in series [6] was ≥ 70% throughout. Besides, the pest or weed control at 500 ppm in series [2], in [4] and in series [7] was ≥ 70% each time. In addition, the inhibition at 50 µM in series [12] was > 80%. For the same compound, the chromatographic logP was determined as 2.57 in [13] and 1.48 in series [10]. Further, the pest or weed control at 250 ppm in series [9] is ≥ 80%.
Consider `COCC(O)c1cccc(Nc2ncc(C(F)(F)F)c(NC3CC3)n2)c1` (centres unmarked) [Example 195], for which the pest or weed control at 500 ppm in [2], in series [4] and in series [7] was ≥ 70% throughout. In addition, the inhibition at 50 µM in series [12] is > 80%. Further, the chromatographic logP in series [13] was 2.64; in [10], 1.97. For the same compound, the pest or weed control at 250 ppm in series [9] and in series [11] was ≥ 80% each time.
As for `CC(O)c1cccc(Nc2ncc(Cl)c(NC3CC3)n2)c1` (centres unmarked) [Ic-IV-1, 1-(3-{[5-Chloro-4-(cyclopropylamino)pyrimidin-2-yl]amino}phenyl)ethanol], in [14], the chromatographic logP is 1.25.
As to `CCC[S+]([O-])c1cccc(Nc2ncc(C(F)(F)F)c(Cl)n2)c1` (centres unmarked) [Xb-1, 4-Chloro-N-[3-(propylsulphinyl)phenyl]-5-(trifluoromethyl)pyrimidin-2-amine], in series [14], the chromatographic logP came out at 1.76.

Source of the values: patent publication US20110245284A1, “Alkoxy- and Alkylthio-Substituted Anilinopyrimidines” (Bayer CropScience AG, priority 2008, published 2011).
